The subject of one assay is ASPC1 pancreatic adenocarcinoma cells [homozygous G12D]. Put plainly: Cancer cell line proliferation (CellTiter-Glo), ASPC1. It counts as cell-based. To be noted: Homo sapiens, ASPC-1 cells, 72 hr, read-out: CTG(IC50), ABS-72 H(nM) ASPC-1. The protocol: (§1) The following cancer cell lines were employed: AGS gastric carcinoma [heterozygous G12D] (ATCC, CRL-1739); A-427 lung carcinoma [heterozygous G12D] (ATCC, HTB-53); ASPC1 pancreatic adenocarcinoma [homozygous G12D] (ATCC, CRL-1682) and SW1990 pancreatic adenocarcinoma [homozygous G12D] (ATCC CRL-2172). Cell lines were cultured essentially according to ATCC recommendations.
(§2) AGS, A-427, ASPC1, SW1990, and GP2D cells were plated in 96-well tissue culture plates at 4,000 cells/well and incubated at 37° C./5% CO2 for 72 hr in 100 μl of media. 3-fold serial dilutions of each test compound were prepared ranging from 20 μM to 1.02 nM. Each cell line was then treated with test compounds at various concentrations with a final concentration of 0.5% DMSO/well, and then incubated at 37° C./5% CO2 for 72 hr. 100 μl of CellTiter-Glo® Reagent (Promega Corporation, Madison, WI) was added to each well and processed according manufacturer's protocol. Results were analyzed and IC50 5 values were calculated in GraphPad 7 software.
As a reminder, the IC50 is the concentration needed to halve the response being measured. On to `C#Cc1c(F)ccc2cc(O)cc(-c3nc(OC(C)C)c4c(N5CC6CCC(C5)N6)nc(OCC5(CN6CCC(C(F)(F)F)CC6)CC5)nc4c3F)c12` [Example 29], for which the IC50 was less than 100 nM.

With `C#Cc1c(F)ccc2cc(O)cc(-c3nc(OC4CC4)c4c(N5CC6CCC(C5)N6)nc(OCC5(CN6CCC(C(F)(F)F)CC6)CC5)nc4c3F)c12` [Example 31], the IC50 was less than 100 nM.

Consider `C#Cc1c(F)ccc2cc(O)cc(-c3ncc4c(N5CC6CCC(C5)N6)nc(OCC5(CN6CCC[C@@H](F)C6)CC5)nc4c3F)c12` [Example 16], for which the IC50 is less than 100 nM.

For `C#Cc1c(F)ccc2cc(O)cc(-c3ncc4c(N5CC6CCC(C5)N6)nc(OCC(=C)CN5CCC(F)CC5)nc4c3F)c12` [Example 27], the IC50 lay in the range of 100 to 1000 nM.

Regarding `C#Cc1c(F)ccc2cc(O)cc(-c3nc(OC)c4c(N5CC6CCC(C5)N6)nc(OCC5(CN6CCC(C(F)(F)F)CC6)CC5)nc4c3F)c12` [Example 3], the IC50 is less than 100 nM.

Turning to `C#Cc1c(F)ccc2cc(O)cc(-c3nc(OC)c4c(N5CC6CCC(C5)N6)nc(OCC(=C)CN5CC6CC6C5)nc4c3F)c12` (centres unmarked) [Example 48], the concentration for half-maximal inhibition (IC50) is less than 100 nM.

As for `C#Cc1c(F)ccc2cc(O)cc(-c3ncc4c(N5CC6CCC(C5)N6)nc(OCC5(CN6CCC([S+](C)[O-])CC6)CC5)nc4c3F)c12` (centres unmarked) [Example 22], the IC50 is greater than 1000 nM.

In the next assay the test system is AGS gastric carcinoma cells [heterozygous G12D]. Put plainly: Cancer cell line proliferation (CellTiter-Glo), AGS. The settings on record: Homo sapiens, 72 hr, read-out: CTG(IC50), ABS-72 H(nM) AGS. It counts as cell-based. The protocol: as §1, §2
In general terms: ATP-based viability assays read luminescence as a measure of living cells.
Turning to `C#Cc1c(F)ccc2cc(O)cc(-c3nc(OC(C)C)c4c(N5CC6CCC(C5)N6)nc(OCC5(CN6CCC(C(F)(F)F)CC6)CC5)nc4c3F)c12` [Example 29], the IC50 is less than 100 nM.

As to `C#Cc1c(F)ccc2cc(O)cc(-c3nc(OC4CC4)c4c(N5CC6CCC(C5)N6)nc(OCC5(CN6CCC(C(F)(F)F)CC6)CC5)nc4c3F)c12` [Example 31], the IC50 was less than 100 nM.

Take `C#Cc1c(F)ccc2cc(O)cc(-c3ncc4c(N5CC6CCC(C5)N6)nc(OCC5(CN6CCC[C@@H](F)C6)CC5)nc4c3F)c12` [Example 16]: the IC50 was less than 100 nM.

For the molecule `C#Cc1c(F)ccc2cc(O)cc(-c3ncc4c(N5CC6CCC(C5)N6)nc(OCC(=C)CN5CCC(F)CC5)nc4c3F)c12` [Example 27], the IC50 was less than 100 nM.

For `C#Cc1c(F)ccc2cc(O)cc(-c3nc(OC)c4c(N5CC6CCC(C5)N6)nc(OCC5(CN6CCC(C(F)(F)F)CC6)CC5)nc4c3F)c12` [Example 3], the IC50 is less than 100 nM.

Turning to `C#Cc1c(F)ccc2cc(O)cc(-c3nc(OC)c4c(N5CC6CCC(C5)N6)nc(OCC(=C)CN5CC6CC6C5)nc4c3F)c12` (centres unmarked) [Example 48], the IC50 was less than 100 nM.

`C#Cc1c(F)ccc2cc(O)cc(-c3ncc4c(N5CC6CCC(C5)N6)nc(OCC5(CN6CCC([S+](C)[O-])CC6)CC5)nc4c3F)c12` (centres unmarked) [Example 22]: the IC50 was greater than 1000 nM.

For a further assay, the system named is SW1990 pancreatic adenocarcinoma cells [homozygous G12D]. Description: Cancer cell line proliferation (CellTiter-Glo), SW1990. It counts as cell-based. To be noted: Homo sapiens, 72 hr, read-out: CTG(IC50), ABS-72 H(nM) SW1990. The protocol: as §1, §2
On to `C#Cc1c(F)ccc2cc(O)cc(-c3nc(OC(C)C)c4c(N5CC6CCC(C5)N6)nc(OCC5(CN6CCC(C(F)(F)F)CC6)CC5)nc4c3F)c12` [Example 29], for which the IC50 was less than 100 nM.

`C#Cc1c(F)ccc2cc(O)cc(-c3nc(OC4CC4)c4c(N5CC6CCC(C5)N6)nc(OCC5(CN6CCC(C(F)(F)F)CC6)CC5)nc4c3F)c12` [Example 31]: the IC50 is less than 100 nM.

As for `C#Cc1c(F)ccc2cc(O)cc(-c3ncc4c(N5CC6CCC(C5)N6)nc(OCC(=C)CN5CCC(F)CC5)nc4c3F)c12` [Example 27], the IC50 is less than 100 nM.

On to `C#Cc1c(F)ccc2cc(O)cc(-c3nc(OC)c4c(N5CC6CCC(C5)N6)nc(OCC5(CN6CCC(C(F)(F)F)CC6)CC5)nc4c3F)c12` [Example 3], for which the IC50 was less than 100 nM.

Take `C#Cc1c(F)ccc2cc(O)cc(-c3nc(OC)c4c(N5CC6CCC(C5)N6)nc(OCC(=C)CN5CC6CC6C5)nc4c3F)c12` (centres unmarked) [Example 48]: the IC50 was less than 100 nM.

The test system of another assay is A-427 lung carcinoma cells [heterozygous G12D]. Description: Cancer cell line proliferation (CellTiter-Glo), A-427. It counts as cell-based. The settings on record: Homo sapiens, A427 cells, 72 hr, read-out: CTG(IC50), ABS-72 H(nM) A427. Here is the method:
as §1, §2
Regarding `C#Cc1c(F)ccc2cc(O)cc(-c3nc(OC(C)C)c4c(N5CC6CCC(C5)N6)nc(OCC5(CN6CCC(C(F)(F)F)CC6)CC5)nc4c3F)c12` [Example 29], the IC50 is 100 to 1000 nM.

For the molecule `C#Cc1c(F)ccc2cc(O)cc(-c3nc(OC4CC4)c4c(N5CC6CCC(C5)N6)nc(OCC5(CN6CCC(C(F)(F)F)CC6)CC5)nc4c3F)c12` [Example 31], the half-maximal inhibitory concentration (IC50) fell in the range of 100 to 1000 nM.

Take `C#Cc1c(F)ccc2cc(O)cc(-c3ncc4c(N5CC6CCC(C5)N6)nc(OCC5(CN6CCC[C@@H](F)C6)CC5)nc4c3F)c12` [Example 16]: the IC50 is less than 100 nM.

Take `C#Cc1c(F)ccc2cc(O)cc(-c3ncc4c(N5CC6CCC(C5)N6)nc(OCC(=C)CN5CCC(F)CC5)nc4c3F)c12` [Example 27]: the IC50 lay within 100 to 1000 nM.

In the case of `C#Cc1c(F)ccc2cc(O)cc(-c3nc(OC)c4c(N5CC6CCC(C5)N6)nc(OCC5(CN6CCC(C(F)(F)F)CC6)CC5)nc4c3F)c12` [Example 3], the IC50 was less than 100 nM.

Regarding `C#Cc1c(F)ccc2cc(O)cc(-c3ncc4c(N5CC6CCC(C5)N6)nc(OCC5(CN6CCC([S+](C)[O-])CC6)CC5)nc4c3F)c12` (centres unmarked) [Example 22], the IC50 is greater than 1000 nM.

In another assay the target is T1, KRAS (G12D)/SOS1 (Homo sapiens, UniProt P01116, G12D).
T1 construct: purchased Cisbio 63ADK000CB17PEH
T1 sequence (P01116 1-188 isoform P01116-2 G12D): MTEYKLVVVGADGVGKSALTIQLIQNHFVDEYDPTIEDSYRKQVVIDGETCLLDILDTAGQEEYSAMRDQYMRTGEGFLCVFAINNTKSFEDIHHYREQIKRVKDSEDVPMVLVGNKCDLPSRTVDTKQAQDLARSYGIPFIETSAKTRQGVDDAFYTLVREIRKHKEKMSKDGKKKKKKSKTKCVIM
Description: KRAS (G12D)/SOS1 homogeneous time-resolved fluorescence (HTRF) assay. It counts as binding. To be noted: absence of GTP, 4° C. for 3 hr. Here is the method:
3-fold serial dilutions of each test compound were prepared ranging from 20 μM to 1.02 nM. The test compound was mixed and incubated with reaction components, incubated in a sealed plate at 4° C. for 3 hr and fluorescence was measured using a PerkinElmer Envision plate reader. […]
In general terms: In TR-FRET formats the signal depends on donor and acceptor labels being close together.
`C#Cc1c(F)ccc2cc(O)cc(-c3nc(OC(C)C)c4c(N5CC6CCC(C5)N6)nc(OCC5(CN6CCC(C(F)(F)F)CC6)CC5)nc4c3F)c12` [Example 29] came in with an IC50 of less than 100 nM.

`C#Cc1c(F)ccc2cc(O)cc(-c3nc(OC4CC4)c4c(N5CC6CCC(C5)N6)nc(OCC5(CN6CCC(C(F)(F)F)CC6)CC5)nc4c3F)c12` [Example 31] showed a concentration for half-maximal inhibition (IC50) of less than 100 nM.

Molecule `C#Cc1c(F)ccc2cc(O)cc(-c3ncc4c(N5CC6CCC(C5)N6)nc(OCC5(CN6CCC[C@@H](F)C6)CC5)nc4c3F)c12` [Example 16] yielded a 50% inhibitory concentration (IC50) of less than 100 nM.

As for `C#Cc1c(F)ccc2cc(O)cc(-c3ncc4c(N5CC6CCC(C5)N6)nc(OCC(=C)CN5CCC(F)CC5)nc4c3F)c12` [Example 27], the IC50 was less than 100 nM.

On to `C#Cc1c(F)ccc2cc(O)cc(-c3nc(OC)c4c(N5CC6CCC(C5)N6)nc(OCC5(CN6CCC(C(F)(F)F)CC6)CC5)nc4c3F)c12` [Example 3], for which the IC50 was less than 100 nM.

`C#Cc1c(F)ccc2cc(O)cc(-c3nc(OC)c4c(N5CC6CCC(C5)N6)nc(OCC(=C)CN5CC6CC6C5)nc4c3F)c12` (centres unmarked) [Example 48]: the IC50 was less than 100 nM.

`C#Cc1c(F)ccc2cc(O)cc(-c3ncc4c(N5CC6CCC(C5)N6)nc(OCC5(CN6CCC([S+](C)[O-])CC6)CC5)nc4c3F)c12` (centres unmarked) [Example 22] registered an IC50 of 100 to 1000 nM.
